Results from US20060280820A1, “Use of an extract of Aloysia/Verbena/Lippia triphylla/citriodora for the treatment of chronic and/or inflammatory diseases” (priority 2003, published 2006).

Experiment: Degradation of glycosaminoglycanes by reactive oxygen species (FIG. 2)
Assay type: biochemical
Conditions: free ferrous ions and hydrogen peroxide; pH value 7.2, 37 degrees Celsius

O=C1O[C@H]([C@@H](O)CO)C(O)=C1O [vitamin C]
degradation of glycosaminoglycanes by reactive oxygen species: enhances the degradation of glycosaminoglycanes
